Patent publication US20260356803A1, “Nicotinamide derivatives” (Board of Regents, The University of Texas System, priority 2024, published 2026)
Entries after “also recorded” stand apart in the source; their conditions may differ.

Tests used:
[1] = mice; dosed orally (b5); listed as compound 21; cited from earlier work
primary mouse GBM cells = conditions: screen of 200,000 synthetic compounds; cited from earlier work
[2] = system: mouse and human MPNST cell lines; conditions: cited from earlier work
Schwann cells = conditions: cited from earlier work
[3] = molecular target: T1, recombinant human inosine monophosphate dehydrogenase 2 (IMPDH2) (Homo sapiens, UniProt P12268); experiment: IMPDH2 enzyme assay with reaction extracts; format: biochemical; conditions: role: inhibitor; extract of overnight reaction of 9 with NAMPT and NMNAT added at 40% v/v; 500 uM NAD, 250 uM IMP
T1 construct: NADH absorbance assay with extracts of NAMPT/NMNAT reactions
Text: (§1) Given that vacor, 3-AP, and compound 21 are all metabolized to toxic, NAD-like derivatives through NAMPT and NMNAT, we hypothesized that their anti-cancer activity may also depend on SARM1. To test this, we compared the toxic effects of vacor, 3-AP, and 9 in either wild type cells or cells in which we used CRISPR to silence SARM1. […] These observations highlight that even though these different scaffolds are toxified through the same mechanism, the resulting metabolites may have different activities. We next co-titrated guanosine, which is known to rescue tiazofurin by bypassing IMPDH in guanylate synthesis, with each of the above small molecules. […] To test this hypothesis, we set up in vitro reactions with different combinations of 9, NAMPT and NMNAT. After incubation, metabolites were extracted, reconstituted in aqueous solution and then co-incubated with an established IMPDH2 enzyme assay.
IMPDH activity was measured by monitoring NADH production through the change in absorbance at […] as previously described [PMID: 13428767]. […] Absorbance was measured every 30 seconds for 30 minutes on a BioTek Cytation 5 plate reader (Agilent, USA) at 37 °C. IMPDH2 activity was determined from the slope of absorbance vs. time plots. […]

HCT116 cells = experiment: Cas9-expressing HCT116 cell viability; format: cell-based
Text: (§2) To gain insight into the mechanism of 9 and the relevance of Nam, we pursued two independent and complementary unbiased genetic approaches. First, we performed a genome-wide pooled Clustered Regularly Interspaced Short Palindromic Repeats (CRISPR) and CRISPR-associated protein 9 (Cas9) knockout screen to identify genes whose loss of function can enhance or suppress compound 9 activity. […] We cultured Cas9-expressing HCT116 cells in 10% FBS Nam-free DMEM and transduced with a lentiviral single guide RNA (sgRNA) library designed to silence 19,114 human genes.^11 These cells were treated with either vehicle (DMSO) or 9 for 30 days by which time the 9-treated cells had 7.6 fewer population doublings. Then, relative sgRNA sequences in the resulting cells were determined by massively parallel sequencing of PCR products amplified from genomic DNA, and the relative impact of each gene was derived from the sgRNA reads.
(§3) These observations, taken together, support the hypothesis that the activity of compound 9 depends on NAMPT and NMNAT1.
In 96-well assay plates (Corning #2903), 2,000 cells were plated per well in 100 μL of medium and allowed to adhere overnight. The next day, compounds or Nam suspended in DMSO were dispensed to the assayed wells using a D300e Digital Dispenser (Tecan). All wells were normalized to 0.5% DMSO. 72 hours after incubation at 37 °C in 5% CO2, cell viability was assayed using an ATP-based luminescent viability assay, CellTiter-Glo (Promega #G8462). CellTiter-Glo substrate was mixed 1:1 with phosphate-buffered saline (PBS) supplemented with 1% Triton X-100, and 40 μL of this mixture was added to the assay wells. After the plates were shaken on a microplate shaker for 10 minutes at room temperature, luminescence was recorded using a Synergy 2 Microplate Reader or Cytation 5 plate reader (BioTek). In Prism 9 software (GraphPad), ten-point dose response curves were plotted with baseline-correction to the vehicle control well, and IC50 values were calculated by curve fitting using asymmetric (five parameter), least squares fit.

iHCT116 cells = experiment: Forward genetics resistance selection (IAA-inducible mutagenesis); format: cell-based
Text: Second, we screened for resistance to 9 in iHCT116 cells, a system that uses inducible mutagenesis and forward genetics to find compound-resistant mutations and thus can reveal both loss of function and gain of function alleles that suppress activity. The iHCT116 system is a barcoded cell line in which we temporally control mutagenesis by the addition of indole acetic acid (IAA) mediated degradation of the mismatch repair protein MLH1.^12 MLN4924 is a small molecule toxin that we use as a positive control to verify that IAA treatment leads to increased mutations. By degrading MLH1 and increasing the overall mutation rate, IAA treatment increases the frequency of UBA3 mutations, leading to a higher rate of MLN4924 resistance. […] Having previously established a relationship between either NMNAT1 levels or NAMPT activity and compound resistance, we analyzed the levels of both enzymes in multiple resistant clones that harbored unique barcode sequences. […] To test whether reduced NMNAT1 levels in these clones contributed to resistance, we ectopically expressed NMNAT1 in either the parental cells or a representative resistant clone with low NMNAT1 expression.

[4] = system: NAMPT activity in S462 cells; experiment: NMN levels in S462 cells (NAMPT activity in cells); format: cell-based, human; conditions: regular DMEM, increasing concentrations of 9, compared with FK866
IMPDH = experiment: Guanosine co-titration rescue; format: cell-based; conditions: guanosine co-titrated
Text: as §1

[5] = system: Cas9-expressing HCT116 cells; experiment: Genome-wide pooled CRISPR/Cas9 knockout screen in HCT116; format: cell-based, human
Text: as §2, §3

[6] = resistant clones with unique barcodes

Row | SMILES | bioavailability [1] | anti-proliferative activity (primary mouse GBM cells) | toxicity to MPNST cell lines [2] | toxicity to Schwann cells (Schwann cells) | inhibition of IMPDH activity [3] | rescue by 100 μM Nam (HCT116 cells; 10% FBS Nam-free DMEM) | IC50 (HCT116 cells; Cas9-expressing HCT116, 10% FBS Nam-free DMEM) [nM] | average increase in IC50 on NMNAT1 knockout (HCT116 cells; HCT116, three independent NMNAT1 sgRNAs) [fold] | NAMPT levels in 9-resistant clones (iHCT116 cells; [6]) | NMNAT1 protein levels downregulated in 9-resistant clones (iHCT116 cells; [6]) | difference in number of surviving clones Mut-off vs Mut-on (iHCT116 cells; three lethal selection concentrations of 9) | NMN levels in S462 cells [4] | guanosine rescue of toxicity (IMPDH) | enrichment of sgRNA reads for NAMPT ([5]; 9-treated cells, 30 days) [fold] | increase in sgRNA reads targeting NMNAT1 ([5]; 9-treated cells, 30 days) [fold] | fewer population doublings ([5]; 9-treated versus vehicle, 30 days) [population doublings] | rank of NAMPT among enriched genes ([5]; out of 19,114 genes)
1 | O=C(Nc1cccnc1)c1cccs1 [Compound 1, N-(pyridin-3-yl)thiophene-2-carboxamide] | bioavailable when dosed orally; also recorded: bioavailable in mice | hit | selectively toxic | nontoxic |  |  |  |  |  |  |  |  |  |  |  |  | 
2 | O=C(Nc1cccs1)c1cccnc1 [Compound 9, N-(Thiophen-2-yl)nicotinamide] |  |  |  |  | substantial inhibition | rescued by 100 μM Nam | 20.8 | 6.0 | the same in all clones | five out of eight clones | did not observe a substantial difference | did not reduce the levels of NMN to the same extent as FK866 | profound dose-dependent rescue | 2.1 | 5.2 | 7.6 | 101
